Measured values taken from the supplement of paper PMC10307832.

Key:
Test in all cases: relative viability (nuclei count vs DMSO), 5 days (fraction); higher = more cells survive
Kobe2602 + Pictilisib = compound: C1=CC(=CC=C1NC(=S)NNC2=C(C=C(C=C2[N+](=O)[O-])C(F)(F)F)[N+](=O)[O-])F [Kobe2602] + CS(=O)(=O)N1CCN(Cc2cc3nc(-c4cccc5[nH]ncc45)nc(N4CCOCC4)c3s2)CC1 [Pictilisib] (partner 1 µM)
How it was run: (§1)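 Relative viability divides the nuclei count in treated wells by that in vehicle wells. Lung cancer cell lines were seeded in 1536-well plates, dosed by pin tool the next day, and fixed and stained after 5 days in one step with final 0.05% Triton X-100, 1% formaldehyde and 1 ug/ml Hoechst. Dosing was a single drug or a fixed anchor-drug dose plus five library-drug doses (not always all listed) in √10 steps, and values are medians of duplicate plates imaged at 4×.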

Cabozantinib + Lapatinib = compound: COc1cc2nccc(Oc3ccc(NC(=O)C4(C(=O)Nc5ccc(F)cc5)CC4)cc3)c2cc1OC [Cabozantinib] + CS(=O)(=O)CCNCc1ccc(-c2ccc3ncnc(Nc4ccc(OCc5cccc(F)c5)c(Cl)c4)c3c2)o1 [Lapatinib] (partner 2 µM)
How it was run: as §1

Cabozantinib + Olaparib = compound: COc1cc2nccc(Oc3ccc(NC(=O)C4(C(=O)Nc5ccc(F)cc5)CC4)cc3)c2cc1OC [Cabozantinib] + O=C(c1cc(Cc2n[nH]c(=O)c3ccccc23)ccc1F)N1CCN(C(=O)C2CC2)CC1 [Olaparib] (partner 8 µM)
How it was run: as §1

Kobe2602 + Palbociclib = compound: C1=CC(=CC=C1NC(=S)NNC2=C(C=C(C=C2[N+](=O)[O-])C(F)(F)F)[N+](=O)[O-])F [Kobe2602] + CC(=O)c1c(C)c2cnc(Nc3ccc(N4CCNCC4)cn3)nc2n(C2CCCC2)c1=O [Palbociclib] (partner 0.5 µM)
How it was run: as §1

Cell Line	relative viability (Kobe2602 + Pictilisib; first compound 0.2 µM)	relative viability (Kobe2602 + Pictilisib; first compound 0.6325 µM)	relative viability (Kobe2602 + Pictilisib; first compound 2 µM)	relative viability (Kobe2602 + Pictilisib; first compound 6.325 µM)	relative viability (Kobe2602 + Pictilisib; first compound 20 µM)	relative viability (Cabozantinib + Lapatinib; first compound 0.02 µM)	relative viability (Cabozantinib + Lapatinib; first compound 0.06325 µM)	relative viability (Cabozantinib + Lapatinib; first compound 0.6325 µM)	relative viability (Cabozantinib + Lapatinib; first compound 2 µM)	relative viability (Cabozantinib + Olaparib; first compound 0.02 µM)	relative viability (Cabozantinib + Olaparib; first compound 0.06325 µM)	relative viability (Cabozantinib + Olaparib; first compound 0.6325 µM)	relative viability (Cabozantinib + Olaparib; first compound 2 µM)	relative viability (Kobe2602 + Palbociclib; first compound 0.2 µM)	relative viability (Kobe2602 + Palbociclib; first compound 0.6325 µM)	relative viability (Kobe2602 + Palbociclib; first compound 2 µM)	relative viability (Kobe2602 + Palbociclib; first compound 6.325 µM)	relative viability (Kobe2602 + Palbociclib; first compound 20 µM)	relative viability (Cabozantinib + Lapatinib; first compound 0.2 µM)	relative viability (Cabozantinib + Olaparib; first compound 0.2 µM)
PC-3 [JPC-3]	0.873	0.74	0.795	0.781	0.671	0.398	0.473	0.407	0.391	1.23	1.31	1.2	1.14	0.587	0.524	0.561	0.482	0.501	–	–
HARA	0.445	0.415	0.375	0.345	0.495	0.582	0.806	0.809	0.639	0.794	1.07	0.978	0.635	0.331	0.227	0.237	0.268	0.366	0.856	–
NCI-H2347	0.745	0.843	0.716	0.558	0.611	0.883	0.951	0.824	0.925	0.641	0.549	0.493	0.446	0.422	0.435	0.403	0.438	0.421	1.03	0.525
LOU-NH91	0.553	0.49	0.468	0.528	0.566	0.687	0.776	0.711	0.712	0.96	0.984	0.903	0.925	0.475	0.5	0.537	0.526	0.529	0.781	0.681
LC-2-ad	0.614	0.54	0.459	0.441	0.477	0.938	1.04	0.622	0.253	0.754	0.735	0.829	0.691	0.466	0.514	0.533	0.506	0.484	0.876	0.847
LCLC-97TM1	0.195	0.18	0.185	0.15	0.167	–	1.21	1.13	1.09	0.483	0.492	0.342	0.407	0.192	0.242	–	0.218	0.194	0.927	0.332
EKVX	0.461	0.422	0.386	0.412	0.426	0.172	0.207	0.21	0.191	1.04	1.01	0.969	0.805	0.456	0.386	0.375	0.408	0.379	0.203	0.792
NCI-H441	0.46	0.495	0.538	0.483	0.409	–	–	–	–	0.787	0.664	0.59	0.703	0.236	0.198	0.243	0.237	0.221	–	0.615
HCC-827	1	0.932	0.898	0.981	1.18	0.19	0.233	0.183	0.179	0.643	0.786	0.624	0.562	0.528	0.574	0.621	0.489	0.53	–	–
NCI-H838	0.393	0.489	0.426	0.422	0.418	1.01	0.997	0.881	0.877	0.847	0.836	0.699	0.662	0.196	0.215	0.199	0.246	0.199	0.895	0.774
CAL-12T	0.59	0.556	0.394	0.387	0.548	0.708	0.653	–	0.529	0.728	0.859	0.716	0.743	0.515	0.6	0.411	0.408	0.407	0.701	0.73
NCI-H2342	–	–	–	–	–	–	–	–	–	0.436	0.454	0.495	0.379	0.537	0.563	0.467	0.532	0.535	–	0.746
SW 900	–	–	–	–	–	–	–	–	–	0.877	0.941	0.636	0.684	0.621	0.53	0.559	0.567	0.551	–	0.664
IA-LM	0.369	0.306	0.338	0.318	0.317	0.92	0.91	0.946	0.808	0.817	0.849	1.06	0.925	–	–	–	–	–	1.02	0.801
EPLC-272H	0.321	0.458	0.294	0.345	0.374	0.899	1.22	0.97	0.701	0.906	0.787	0.884	0.597	0.337	0.357	0.352	0.321	0.359	0.877	0.648
A-427	0.742	0.925	0.741	0.774	0.98	1.1	1.11	1.02	1.08	0.715	0.709	0.761	0.704	0.593	0.571	0.522	0.606	0.532	0.963	0.714
NCI-H727	0.314	0.356	0.473	0.331	0.385	0.61	1.27	0.806	0.783	0.769	0.828	0.907	0.606	0.665	0.703	0.635	–	0.704	0.702	0.632
NCI-H1993	0.649	0.807	0.861	0.893	0.785	0.76	0.807	0.725	0.814	1.03	0.975	0.785	0.981	0.679	0.543	0.48	0.589	0.525	0.792	0.75
LK-2	0.642	0.597	0.534	0.542	0.609	–	1.15	0.948	0.856	0.57	0.791	0.697	0.667	0.904	0.628	0.81	0.649	0.687	0.929	0.815

Cell Line	relative viability (Kobe2602 + Pictilisib; first compound 0.2 µM)	relative viability (Kobe2602 + Pictilisib; first compound 0.6325 µM)	relative viability (Kobe2602 + Pictilisib; first compound 2 µM)	relative viability (Kobe2602 + Pictilisib; first compound 6.325 µM)	relative viability (Kobe2602 + Pictilisib; first compound 20 µM)	relative viability (Cabozantinib + Lapatinib; first compound 0.02 µM)	relative viability (Cabozantinib + Lapatinib; first compound 0.06325 µM)	relative viability (Cabozantinib + Lapatinib; first compound 0.6325 µM)	relative viability (Cabozantinib + Lapatinib; first compound 2 µM)	relative viability (Cabozantinib + Olaparib; first compound 0.02 µM)	relative viability (Cabozantinib + Olaparib; first compound 0.06325 µM)	relative viability (Cabozantinib + Olaparib; first compound 0.6325 µM)	relative viability (Cabozantinib + Olaparib; first compound 2 µM)	relative viability (Kobe2602 + Palbociclib; first compound 0.2 µM)	relative viability (Kobe2602 + Palbociclib; first compound 0.6325 µM)	relative viability (Kobe2602 + Palbociclib; first compound 2 µM)	relative viability (Kobe2602 + Palbociclib; first compound 6.325 µM)	relative viability (Kobe2602 + Palbociclib; first compound 20 µM)	relative viability (Cabozantinib + Lapatinib; first compound 0.2 µM)	relative viability (Cabozantinib + Olaparib; first compound 0.2 µM)
SW 1573	0.491	0.457	0.365	0.556	0.486	1.06	1.03	1.23	1.04	0.455	0.516	0.488	0.384	0.405	0.477	0.375	0.358	0.281	1.23	0.447
NCI-H1915	0.959	0.993	0.994	0.989	1.02	0.946	0.987	0.999	0.989	0.296	0.28	0.239	0.255	0.512	0.558	0.578	0.536	0.57	0.967	0.283
NCI-H661	0.461	0.368	0.419	0.353	0.52	0.46	0.467	0.449	0.343	0.786	0.79	0.875	0.825	0.405	0.416	0.428	0.414	0.475	0.502	0.779
NCI-H520	0.253	0.364	0.255	0.225	0.292	1.08	0.924	0.973	0.566	0.369	0.341	0.42	0.228	0.239	0.217	0.249	0.231	0.205	0.72	0.386
COR-L 105	0.434	0.433	0.377	0.455	0.387	0.321	0.341	0.352	0.372	0.75	0.688	0.663	0.805	0.423	0.413	0.422	0.438	0.383	–	0.742
NCI-H2009	0.843	0.877	0.874	0.876	0.897	1.06	0.959	0.965	0.941	0.718	0.71	0.712	0.762	0.241	0.258	0.294	0.24	0.254	1	0.703
NCI-H1563	0.648	0.697	0.616	0.684	0.653	0.946	0.966	0.844	1.21	–	–	–	–	–	–	–	–	–	1.04	–
RERF-LC-KJ	0.589	0.643	0.512	0.506	0.493	0.904	0.894	0.776	0.815	1.06	1.05	0.824	0.921	0.994	1.02	0.992	0.939	0.728	0.784	0.96
NCI-H1703	0.26	0.245	0.225	0.263	0.229	–	0.587	0.282	0.231	0.398	0.232	0.215	0.149	–	–	–	–	–	0.337	0.224
EBC-1	0.365	0.556	0.402	0.378	0.437	0.192	0.17	0.195	0.213	0.748	0.452	0.136	0.123	–	–	–	–	–	0.242	0.16
NCI-H1648	–	–	–	–	–	–	–	–	–	1.17	0.995	1.02	0.651	0.237	0.275	0.248	0.228	0.283	–	–
A549	–	0.476	0.487	0.524	0.514	0.996	1.03	0.926	0.807	0.291	0.628	0.212	0.309	–	–	–	–	–	0.872	0.34
NCI-H1299	0.862	0.957	0.706	0.71	0.916	0.95	1.04	1.03	1.04	0.969	0.988	0.971	1.09	–	–	–	–	–	0.936	0.964
NCI-H522	–	–	–	–	–	–	–	–	–	0.714	0.667	0.625	0.648	1.13	1.1	0.915	1.11	0.993	–	0.584
Calu-6	0.935	0.931	0.856	0.885	0.882	1.14	1.2	0.986	1.05	0.595	0.662	0.539	0.517	–	–	–	–	–	1.15	0.613
ChaGo-K-1	0.761	1.05	0.625	0.725	0.732	–	–	–	–	0.446	0.458	0.411	0.442	0.977	0.926	0.83	0.894	0.83	–	0.454
LCLC-103H	0.596	0.696	0.62	0.618	0.638	–	–	–	–	0.77	0.796	0.79	0.729	0.504	0.518	0.537	0.539	0.491	–	0.779
NCI-H596	0.222	0.432	0.395	0.403	0.422	1.17	1.21	1.05	1.02	0.75	0.768	0.7	0.793	–	–	–	–	–	0.956	0.756
